Reference: PubChem BioAssay AID624129 (Sanford-Burnham Center for Chemical Genomics, 2012)
The source made the active and inactive calls. No rule for the calls is given here.

Tests used:
Experiment in all cases: CXCR6 receptor antagonists, dose response, cell-based, beta-arrestin, DiscoveRx, APJ panel, uHTS hits (AID 624129)
[1] = target: Beta-galactosidase (Escherichia coli) (UniProt Q8VNN2); details: CXCR6 beta-arrestin (DiscoveRx) antagonist cell assay, b-galactosidase
[2] = target: Apelin receptor (Homo sapiens) (UniProt P35414); details: CXCR6 beta-arrestin (DiscoveRx) antagonist cell assay, APJ
[3] = target: C-C chemokine receptor type 6 (Homo sapiens) (UniProt P51684); details: CXCR6 beta-arrestin (DiscoveRx) antagonist cell assay
[4] = target: C-X-C chemokine receptor type 6 (Homo sapiens) (UniProt O00574); details: CXCR6 beta-arrestin (DiscoveRx) antagonist cell assay
Chain of C-X-C chemokine receptor type 6 (Homo sapiens) (O00574 whole entry, looked up): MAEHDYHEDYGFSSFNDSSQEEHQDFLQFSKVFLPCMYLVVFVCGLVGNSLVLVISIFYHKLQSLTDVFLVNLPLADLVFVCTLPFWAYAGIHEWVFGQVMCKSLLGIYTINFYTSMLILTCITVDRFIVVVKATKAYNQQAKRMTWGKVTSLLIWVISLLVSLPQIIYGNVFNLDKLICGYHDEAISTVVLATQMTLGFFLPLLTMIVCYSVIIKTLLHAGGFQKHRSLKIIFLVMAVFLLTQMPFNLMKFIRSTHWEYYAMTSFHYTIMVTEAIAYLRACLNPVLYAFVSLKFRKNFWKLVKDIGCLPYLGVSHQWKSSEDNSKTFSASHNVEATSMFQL

[5] = dose range 1, mean IC50 across replicates
[6] = CCR6, dose range 1, mean IC50 across replicates
[7] = CXCR6, dose range 1, mean IC50 across replicates
[8] = CXCR6, run 1, dose range 2, at 80 µM (top of the series)

Chain of Beta-galactosidase (Escherichia coli) (Q8VNN2 whole entry, looked up): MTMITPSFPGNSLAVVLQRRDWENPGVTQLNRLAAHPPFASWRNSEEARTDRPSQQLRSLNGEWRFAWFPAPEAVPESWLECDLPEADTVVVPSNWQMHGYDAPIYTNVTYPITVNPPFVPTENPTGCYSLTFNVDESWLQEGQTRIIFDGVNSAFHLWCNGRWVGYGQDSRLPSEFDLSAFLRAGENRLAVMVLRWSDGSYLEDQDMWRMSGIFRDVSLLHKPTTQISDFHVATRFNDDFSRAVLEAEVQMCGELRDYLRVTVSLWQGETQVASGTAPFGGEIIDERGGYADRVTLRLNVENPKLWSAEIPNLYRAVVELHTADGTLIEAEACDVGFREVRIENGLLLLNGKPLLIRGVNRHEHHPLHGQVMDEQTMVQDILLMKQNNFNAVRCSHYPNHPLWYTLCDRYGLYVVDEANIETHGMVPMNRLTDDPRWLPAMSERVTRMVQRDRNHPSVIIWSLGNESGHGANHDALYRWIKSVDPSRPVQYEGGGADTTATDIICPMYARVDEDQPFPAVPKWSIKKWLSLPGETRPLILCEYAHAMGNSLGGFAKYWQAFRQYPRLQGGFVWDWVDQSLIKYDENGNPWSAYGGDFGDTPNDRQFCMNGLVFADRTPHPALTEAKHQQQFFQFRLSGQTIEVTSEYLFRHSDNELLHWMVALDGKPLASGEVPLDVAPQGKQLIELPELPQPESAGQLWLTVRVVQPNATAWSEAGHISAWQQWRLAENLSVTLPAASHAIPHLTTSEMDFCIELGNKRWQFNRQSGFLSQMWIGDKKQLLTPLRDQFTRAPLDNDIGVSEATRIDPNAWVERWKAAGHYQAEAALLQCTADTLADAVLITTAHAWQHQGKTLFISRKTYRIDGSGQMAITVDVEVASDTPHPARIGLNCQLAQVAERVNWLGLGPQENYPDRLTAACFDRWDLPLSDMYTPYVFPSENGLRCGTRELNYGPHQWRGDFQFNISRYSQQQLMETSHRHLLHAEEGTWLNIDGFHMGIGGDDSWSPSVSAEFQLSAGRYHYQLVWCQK

IC50 ([1]; dose range 1)	IC50 [1, 5]	IC50 [2, 5]	IC50 ([2]; run 2, dose range 1)	IC50 ([2]; run 3, dose range 1)	IC50 [3, 6]	IC50 ([3]; CCR6, run 2, dose range 1)	IC50 ([4]; CXCR6, dose range 1)	IC50 [4, 7]	inhibition [4, 8]	IC50 ([4]; CXCR6, run 2, dose range 1)	IC50 ([2]; dose range 1)	IC50 ([3]; CCR6, dose range 1)	IC50 ([4]; CXCR6, run 1, dose range 2)	IC50 ([4]; CXCR6, run 2, dose range 2)	inhibition ([4]; CXCR6, run 1, dose range 2, at 20 µM (top of the series))	Structure (SMILES)
> 80 µM (inactive)	> 80 µM	> 80 µM	> 80 µM	> 80 µM	> 80 µM	> 80 µM	> 80 µM (inactive)	> 80 µM	-48.8%	> 80 µM						O=C(Nc1nc(-c2ccccn2)cs1)c1cc(Cl)ccc1[N+](=O)[O-]
> 80 µM (inactive)	> 80 µM	10.9 µM	11.2 µM	10.6 µM	6.87 µM	7.24 µM	12.7 µM	10.3 µM		9.67 µM	10.9 µM	6.5 µM	10.1 µM	8.85 µM		C=C1C(=O)OC2C1CCC(C)=C1C(=O)C3OC3(C)C12 (stereo not given)
> 80 µM (inactive)	> 80 µM	25.5 µM	> 80 µM	> 80 µM	39.8 µM	52.2 µM	inactive	20.9 µM		> 80 µM	25.5 µM	27.3 µM	4.04 µM	6.46 µM		O=[N+]([O-])c1cc2oc3c(c2c(C=NCc2ccccc2)c1O)CCCC3
> 80 µM (inactive)	> 80 µM	> 80 µM	> 80 µM	> 80 µM	> 80 µM	> 80 µM	> 80 µM (inactive)	> 80 µM	-28%	> 80 µM						CCOc1ccc(NC(=O)CN(C)S(=O)(=O)c2cccs2)cc1
> 80 µM (inactive)	> 80 µM	2.15 µM	> 80 µM	2.15 µM	> 80 µM	> 80 µM		10.7 µM		> 80 µM		> 80 µM (inactive)	10.6 µM	10.9 µM		N#Cc1c(C#N)c(SSc2c(C#N)c(C#N)c(N)n2-c2ccccc2)n(-c2ccccc2)c1N
> 80 µM (inactive)	> 80 µM	12 µM	10.9 µM	12.3 µM	14 µM	15.5 µM	inactive	12.5 µM		18.4 µM	12.9 µM	12.5 µM	6.99 µM	11.2 µM		Cc1ccc2c(c1)C1CN(C)CCC1N2C(=S)NC(=O)c1ccc(Br)cc1 (stereo not given)
> 80 µM (inactive)	> 80 µM	3.07 µM	3.21 µM	3.56 µM	1.43 µM	1.86 µM	1.92 µM	1.55 µM		2.07 µM	2.44 µM	0.999 µM	1.07 µM	1.14 µM		Cc1[nH]n(-c2ccccc2)c(=S)c1C=NCCCN=Cc1c(C)[nH]n(-c2ccccc2)c1=S
> 80 µM (inactive)	> 80 µM	9.89 µM	7.31 µM	11.3 µM	6.81 µM	7.45 µM	7.8 µM	6.87 µM		7.9 µM	11 µM	6.18 µM	6.11 µM	5.67 µM		C=C1CC(COc2cc(=O)oc3ccccc23)(c2ccccc2)OC1=O (stereo not given)
> 80 µM (inactive)	> 80 µM	> 80 µM	> 80 µM	> 80 µM	> 80 µM	> 80 µM	> 80 µM (inactive)	> 80 µM	-25%	> 80 µM						CN(C)C(=O)CSc1cccc2cccnc12
> 80 µM (inactive)	> 80 µM	11 µM	11.4 µM	9.67 µM	7.21 µM	7.51 µM	10.8 µM	8.3 µM	122%	5.84 µM	12 µM	6.91 µM				O=C1C=CC(=O)N1Cc1ccccc1
> 80 µM (inactive)	> 80 µM	8.09 µM	3.41 µM	17.4 µM	3.11 µM	3.6 µM	6.22 µM	3.92 µM		4.5 µM	3.43 µM	2.61 µM	2.75 µM	2.23 µM		C/C(=N\NC(=O)C(C)Oc1ccc([N+](=O)[O-])cc1)c1ccccn1 (stereo not given)
> 80 µM (inactive)	> 80 µM	13.7 µM	14.1 µM	13.3 µM	12.6 µM	14.3 µM	inactive	14.1 µM		14 µM	13.6 µM	10.8 µM	8.52 µM	13.3 µM		Fc1ccc(NC(=S)Nc2nccs2)cc1
> 80 µM (inactive)	> 80 µM	4.7 µM	> 80 µM	4.7 µM	7.08 µM	8.19 µM	3.29 µM	5.31 µM		7.32 µM		5.96 µM			67.7%	O=C1N[C@H](Cc2ccccc2)COC(=O)[C@H](Cc2ccc(F)cc2)CC/C=C/C[C@H]1CC(=O)N(CCO)Cc1ccccc1
> 80 µM (inactive)	> 80 µM	22.8 µM	14.4 µM	37.5 µM	3.71 µM	4.17 µM	8.91 µM	9.37 µM		7.95 µM	16.4 µM	3.26 µM	11.2 µM	9.39 µM		Cc1c(Cl)sn(-c2ccc(Cl)cc2)c1=O
> 80 µM (inactive)	> 80 µM	18.8 µM	17.8 µM	17.5 µM	14 µM	14.2 µM	inactive	15.4 µM	74.8%	16.6 µM	21.1 µM	13.8 µM				CC(=O)OCCNc1cc(SCc2ccco2)c2nonc2c1[N+](=O)[O-]
> 80 µM (inactive)	> 80 µM	64.5 µM	57.4 µM	> 80 µM	7.42 µM	7.37 µM	inactive	12 µM		27.7 µM	inactive	7.47 µM	5.63 µM	8.28 µM		Fc1ccc(Sc2nc(-c3ccccc3)nnc2C(F)(F)F)cc1
> 80 µM (inactive)	> 80 µM	20.9 µM	19 µM	23.9 µM	12.3 µM	13.4 µM	inactive	16.7 µM	106%	16 µM	19.8 µM	11.2 µM				Cc1ccc2oc(/N=C(\N)NC(=O)C(C)(C)C)nc2c1
> 80 µM (inactive)	> 80 µM	15.4 µM	10.6 µM	27.1 µM	8.35 µM	9.11 µM	7.96 µM	10.4 µM		16 µM	8.68 µM	7.58 µM	7.49 µM	10 µM		CCCCOc1ccc(C(=O)NNC(=S)NC(=O)CC)cc1
> 80 µM (inactive)	> 80 µM	11.3 µM	13.9 µM	11 µM	5.43 µM	6.07 µM	7.42 µM	6.24 µM	91.3%	5.05 µM	8.97 µM	4.79 µM				CCN1/C(=C\C=C2\C(=O)N(c3ccccc3)C(=S)N2C)Sc2ccccc21
> 80 µM (inactive)	> 80 µM	8.52 µM	9.7 µM	10 µM	7.29 µM	6.75 µM	9.66 µM	6.87 µM		7.93 µM	5.81 µM	7.84 µM	3.62 µM	6.29 µM		NNc1nc(-c2ccccc2)cc(-c2ccccc2O)n1
> 80 µM (inactive)	> 80 µM	5.05 µM	5.23 µM	7.12 µM	3.57 µM	3.77 µM	4.4 µM	3.59 µM		> 80 µM	2.79 µM	3.37 µM	3.41 µM	2.96 µM		Cc1ccc2c(Cl)cc(Cl)c(O)c2n1
> 80 µM (inactive)	> 80 µM	5.31 µM	5.18 µM	> 80 µM	3.1 µM	3.36 µM	4.9 µM	4.9 µM	128%	> 80 µM	5.45 µM	2.84 µM				O=C1C=CC(=O)N1c1ccc(-c2nc3ccccc3o2)cc1
